In patent US6846505B2, “Anti-oxidant” (Danisco A/S, priority 1999, dated 2005):

Columns and labels:
[1] = LPO method: MDA and 4HNE from oxidation of linoleic acid (OD586 nm); conditions: for OD586 nm of the APP test / OD586 nm of the ascorbate test: 24° C. in the dark for 10 days
Excerpt: (§1) The following five methods were used to evaluate compounds in accordance with the present invention. […] Note: both MDA and 4-HNE are the oxidation products of polyunsaturated fatty acids from lipids. • 3. β-carotene method was used to measure the protection of β-carotene oxidation by lipid peroxide in the presence of an added anti-oxidant. • 4. DPPH (1,1-diphenyl-2-picrylhydrazyl) method was used to measure the radical scavenging activity of an anti-oxidant towards the radical DPPH. • 5. polyphenol oxidase (PPO) method was used to measure the inhibition of polyphenol oxidase in vegetables, fruits and mushrooms.
Principle and Goal: A major area for use of antioxidants in food-related products are their ability to prevent the oxidation of polyunsaturated fatty acids in lipids. The oxidation of lipids and fatty acids is a major problem in food.
Assay Conditions: The assay of MDA and 4HNE was performed by the LPO method, using the assay kit from OXIS International, Inc. (Portland, Oreg., USA) and according to their protocol. The assay mixture for the blank contained linoleic acid and Tween 40. For the tests, APP or sodium ascorbate was added. After incubation at 24° C. in the dark for 10 days, the samples were assayed for MDA and 4HNE contents as indicated by their absorbance at 586 nm as given in Table 3. Higher OD586 nm values indicate higher content of MDA and 4HNE, and therefore more degradation of linoleic acid.

[2] = test system: mushroom polyphenol oxidase (PPO); experiment: Polyphenol oxidase (PPO) inhibition, tyrosine substrate, absorbance at 475 nm; type: biochemical; conditions: for OD475 nm (browning product formation): 10 ppm APP, 24° C., pH 6.5
Protocol: Principle and Goal: PPO is one of the enzymes involved in oxidative browning of vegetables and fruits. […] Blank: To 20 μl PPO (20 units, from mushroom. Sigma product. EC 1.14.18.1) was added 0.45 ml water, 0.43 ml phosphate buffer (0.2M Na2HPO4—NaH2PO4, pH6.5), so the final volume was 0.9 ml Control: To 20 μl PPO was added 0.15 ml water, 0.43 ml phosphate buffer (0.2M Na2HPO4—NaH2PO4, pH6.5), then 0.3 ml tyrosine (1 mM, BDH product). Time course progress of the reaction was monitored at room temperature (24° C.) at 475 nm by using a Perkin Elmer UV/VIS Lambda 18 spectrophotometer. Test: To 20 μl PPO was added 0.143 ml water, 7 μl APP (final 10 ppm), 0.430 ml phosphate buffer (0.2M Na2HPO4—NaH2PO4, pH6.5), then 0.3 ml tyrosine (1 mM, BDH product). Time course progress of the reaction was monitored as above. Table 1. Inhibition of 10 ppm APP on polyphenol oxidase (PPO) as indicated by very slow increase at absorbance 475nm compared to control. Higher values at OD475 nm indicate more browning product formation.

[3] = β-carotene method: de-coloration of beta-carotene by oxygen and oxidative intermediates of linoleic acid (OD470 nm)
Excerpt: as §1
Principle and Goal: Carotenes are one of the pigments which may be used to give a healthy colour to food or drinks. They are therefore used as food colorant. β-Carotene is also the precursor for vitamin A. Carotenoid molecules are highly unsaturated and are prone to oxidative degradation; which is stimulated by light, enzymes, metals, and co-oxidation with lipid hydroperoxides.
In the system used, beta-carotene was exposed to oxygen and the oxidative intermediates of linoleic acid.
The assay was performed according to H. E. Miller (JAOSC (1970) 48: 91). The assay system consisted of beta-carotene, linoleic acid, and Tween 40. In the blank, no anti-oxidant was added, while in the tests, either APP in a concentration of 2.5-25 ppm or sodium ascorbate in a concentration of 100-500 ppm was added. The mixtures were incubated in the dark for the time and temperature indicated (see Table 2.1 and 2.2). The absorbance was then measured at 470 nm. The absorbance provided an indication of beta-carotene content. Lower OD470 nm values indicate more degradation of beta-carotene.

[4] = disclosed tests of reference [3]; cited from earlier work
apple slices = experiment: Browning of apple slices (Example 1, FIG. 2); conditions: prolonged period, weeks or months, at room temperature
Excerpt: Compounds of the present invention were investigated as an anti-browning agent in vegetable and fruit products.

O=C1C(O)=COC(CO)C1O [APP, 1,5-Anhydro-D-glycero-hex-1-en-3-ulose]
Effect on oxidation of linoleic acid (in words) [1]: able to delay the oxidation of linoleic acid
OD586 nm of the APP test ([1]; 2.5 ppm, higher OD = more MDA and 4HNE): 0.358
Efficiency in delaying the oxidative degradation of linoleic acid compared with ascorbic acid ([1]; 6.2 ppm APP, FIG. 5): almost as efficient as 300 ppm ascorbic acid
OD586 nm of the APP test ([1]; 6.2 ppm): 0.100
OD586 nm of the APP test ([1]; 12.5 ppm): 0.084
Inhibition of PPO (in words) [2]: efficient inhibitor
OD475 nm (browning product formation) ([2]; reaction time 0 min): 0
OD475 nm (browning product formation) ([2]; reaction time 1 min): 0
OD475 nm (browning product formation) ([2]; reaction time 3 min): 0
OD475 nm (browning product formation) ([2]; reaction time 5 min): 0
OD475 nm (browning product formation) ([2]; reaction time 7 min): 0.0005
OD475 nm (browning product formation) ([2]; reaction time 9 min): 0.0017
OD475 nm (browning product formation) ([2]; reaction time 11 min): 0.0033
OD475 nm (browning product formation) ([2]; reaction time 13 min): 0.0056
OD475 nm (browning product formation) ([2]; reaction time 15 min): 0.0082
OD475 nm (browning product formation) ([2]; reaction time 17 min): 0.0122
OD475 nm (browning product formation) ([2]; reaction time 19 min): 0.0178
OD475 nm (browning product formation) ([2]; reaction time 20 min): 0.0209
Effect on oxidative de-coloration of beta-carotene (in words) [3]: delayed the oxidative de-coloration of beta-carotene
The OD470 nm of the APP test ([3]; 2.5 ppm, 37° C. for 161 min in the dark, lower OD = more degradation): 0.264
The OD470 nm of the APP tests ([3]; 2.5 ppm, 37° C. for 161 min then 24° C. for 17.5 hours in the dark): 0.173
The OD470 nm of the APP test ([3]; 6.2 ppm, 37° C. for 161 min in the dark): 0.314
The OD470 nm of the APP tests ([3]; 6.2 ppm, 37° C. for 161 min then 24° C. for 17.5 hours in the dark): 0.270
The OD470 nm of the APP test ([3]; 12.5 ppm, 37° C. for 161 min in the dark): 0.322
The OD470 nm of the APP tests ([3]; 12.5 ppm, 37° C. for 161 min then 24° C. for 17.5 hours in the dark): 0.274
The OD470 nm of the APP test ([3]; 25 ppm, 37° C. for 161 min in the dark): 0.326
The OD470 nm of the APP tests ([3]; 25 ppm, 37° C. for 161 min then 24° C. for 17.5 hours in the dark): 0.263
Effectiveness relative to ascorbic acid in preventing the de-coloration of β-carotene ([3]; FIG. 4): around 100 times
Function as an antibiotic [4]: did not function satisfactorily as an antibiotic

O=C1O[C@H]([C@@H](O)CO)C([O-])=C1O.[Na+] [Sodium ascorbate, sodium ascorbate, reference compound]
OD586 nm of the ascorbate test ([1]; 100 ppm): 0.279
OD586 nm of the ascorbate test ([1]; 300 ppm): 0.097
OD586 nm of the ascorbate test ([1]; 500 ppm): 0.032
The OD470 nm of the ascorbate test ([3]; 100 ppm, 37° C. for 161 min in the dark): −0.01
The OD470 nm of the ascorbate test ([3]; 100 ppm, 37° C. for 161 min then 24° C. for 17.5 hours in the dark): −0.006
The OD470 nm of the ascorbate test ([3]; 300 ppm, 37° C. for 161 min in the dark): 0.096
The OD470 nm of the ascorbate test ([3]; 300 ppm, 37° C. for 161 min then 24° C. for 17.5 hours in the dark): 0.102
The OD470 nm of the ascorbate test ([3]; 500 ppm, 37° C. for 161 min in the dark): 0.191
The OD470 nm of the ascorbate test ([3]; 500 ppm, 37° C. for 161 min then 24° C. for 17.5 hours in the dark): 0.200

O=C1O[C@H]([C@@H](O)CO)C(O)=C1O [ascorbic acid, reference compound]
Prevention of browning of apple slices (apple slices): unable to do so

O=c1cc(CO)occ1O [kojic acid]
Prevention of browning of apple slices (apple slices): completely prevent browning
Inhibition of PPO (in words) [2]: inhibited
